Measured values as given in patent US8193175B2, “Ruthenium complexes for treating cancers” (Universite de Strasbourg, priority 2004, dated 2012).

Tests used:
[1] = Preliminary toxicity experiment on healthy SWISS mice; format: in vivo; details: small number of healthy SWISS mice
[2] = system: RDM4; experiment: Apoptosis by marking with Annexin-V on RDM4; format: cell-based, mouse
Procedure: Cell death is measured by a first specific marking of the apoptosis. The externalisation of the anionic phospholipids, normally located on the inner layer of the plasmic membrane, is one of the precocious markers of apoptosis (Martin et al, 1996). Annexin-V is a protein which fixes specifically onto the phosphatidylserines in the presence of calcium. When Annexin-V is coupled to a fluorochrome, it makes it possible to quantify the apoptotic cells by flux cytometry.
The control cells are treated with the equivalent volume of solvent (ethanol). […] After 72 hrs, the apoptosis rate is still as low as that of the control cells. On the other hand, with treatment at 45 μM, this rate already reaches 70% at 24 hrs and exceeds 99% after 48 hrs—a sign of significant apoptosis induction.

[3] = system: TK6 and NH32 lines; experiment: Compared proliferation of lines TK6 and NH32; format: cell-based, human
Procedure: The influence of the p53 protein upon the effects induced by the products was determined by using the human lymphoblastoid line TK6 (p53 wild-type) and its NH32 variant of which the p53 gene was totally inactivated by double homologous recombination (Chuang et al, 1999). The TK6 cells originate from the American Tissue Culture Collection (ATGC, Manassas, Va., USA). The NH32 cells were supplied by H. L. Liber (Chuang et al, 1999).
(§1) All of these cells are cultivated in RPMI 1640-Glutamax, supplemented by 10% calf foetal serum heat inactivated at 56° C. for 30 minutes, 1 mM sodium pyruvate, 1 mM non-essential amino acids and 50 μg/mL gentamycine (Life Technologies, Cergy Pontoise, France). The cultures are kept in an incubator at 37° C. with a moisture saturated atmosphere, with 5% CO2.
This test uses the UptiBlue reagent (Interchim, Montluçon, France), metabolised by the living cells. The cells are incubated on plates with 96 wells with 10^4 cells/well (200 μL) with the product and cultivated for 72 hours. Then, 20 μL UptiBlue are added to each well. After 3 hours incubation, the fluorescence of the samples contained in the plates is measured at 590 nm (excitation at 560 nm), using a Fluorolite 1000 microplate reader (Dynex technologies, Issy-Les-Moulineaux, France). […]

[4] = system: RDM4 cells; experiment: Chemo-radiotherapeutic association on RDM4 cells (cell counting, propidium iodure apoptosis); format: cell-based, mouse; details: for proliferation of RDM4 cells, compound plus ionising radiation: 4 Gy rapid neutrons plus compound 11 (10 μM); for proliferation of non-irradiated RDM4 cells (cell counting): cisplatinum 0.7 μM, ruthenium derivative 10 μM, no irradiation
Procedure: Cells of this same line are treated with concentrations of 0.7 μM cisplatinum and 15 μM complex 11. 24 hours after the start of the treatment, the cells are irradiated at 4 Gy with rapid neutrons. The effects of the chemo-radiotherapeutic association are then determined by simple cell counting, measuring the concentration of cells in the medium during treatment 24 hrs, 72 hrs and 168 hrs after irradiation.
Evaluation of the effects of a combined “ionising radiation+RDC-11” treatment upon proliferation and survival of the RDM4 murine cells. These cells originate from an AKR mouse lymphoma. The different tests were carried out in vitro, and five independent experiments were carried out.
The radiations used were rapid neutrons originating from the collision of 65 MeV protons on a Beryllium target (produced at the Cyclotron, Louvain la Neuve (LLN) in Belgium). The results of just one of these experiments which is representative of a set of three experiments carried out with this type of radiation are shown.
The RDM4 cells are adjusted to 50,000 cells/ml, in RPMI 1640 culture medium to which 10% foetal calf serum is added. 4 25 cm2 culture flasks are filled with cell suspension, at the rate of 10 ml/flask, i.e. 500,000 cells/flask.
Four flasks are prepared thus, each corresponding to a different experimental group: • Group 1: non-irradiated, untreated cells (Et/NI in FIG. 9) • Group 2: non-irradiated cells, treated with RDC-11 (RDC-11/NI in FIG. 9) • Group 3: irradiated, non-treated cells (Et/4 Gy in FIG. 9) • Group 4: irradiated cells, treated with RDC-11 (RDC-11/4 Gy in FIG. 9)
RDC-11, prepared from an ethanolic solution, is added to the cells (flask 2 and 4) 6 hours before irradiation. An identical volume of ethanol (Et, 66 μl) is added to flasks 1 and 3. The final concentration of RDC-11 is 10 μM, and the medium is not replaced over the 9 days of the experiment.
Flasks 3 and 4 are irradiated with 4 Gy, at ambient temperature, then returned to culture at 37° C.
On the days following irradiation, aliquots of cell suspensions are regularly taken. The number of cells is determined using a Coulter Counter. Other cells are fixed in ethanol, then marked with propidium iodure, in order to determined the percentage apoptosis.

[5] = system: HL-60; experiment: Proliferation test (UptiBlue) on HL-60; format: cell-based, human
Procedure: The products are tested on different cell lines. The cells used are RDM4 from a murine T lymphoma and a MOLT-4 line originating from an acute lymphoblastic leukemia. These cancer lines both express the p53 protein, unlike the HL-60 cells from a human promyelocytary leukemia where, following deletion of its gene, p53 is absent.
as §1
This test uses the UptiBlue reagent (Interchim, Montluçon, France), metabolised by the living cells. The cells are incubated on plates with 96 wells with 10^4 cells/well (200 μL) with the product and cultivated for 72 hours. Then, 20 μL UptiBlue are added to each well. After 3 hours incubation, the fluorescence of the samples contained in the plates is measured at 590 nm (excitation at 560 nm), using a Fluorolite 1000 microplate reader (Dynex technologies, Issy-Les-Moulineaux, France).
This sensitivity is reversed with the Ru complex. […] These latter, which have a normal p53 gene, are less sensitive to the Ru complex. […]

[6] = system: HCT116 cells; experiment: Western blot of p53, p21 and phospho-histone H3 in HCT116 cells; format: cell-based, human; details: 10 μM
Procedure: FIG. 5: Detection of p53, p21 and of the phosphorylation of histone H3 in the HCT116 cells treated with CDR. The HCT116 cells were treated with the various compounds (10 μM) and for the periods of time indicated (24 hrs or 6 hrs). The proteins were extracted with a lysis buffer and were separated on 10% SDS-Page gel. After being transferred onto nitrocellulose, the p53, p21 proteins and histone H3 were detected by Western blot using anti-p53 (pAb1801), anti-p21 (1/200, Oncogene) antibody and anti-phospho serine 10 of histone H3 (1/2000, Santacruz).
For the purpose of determining the molecular mechanisms used by the ruthenium derivatives and comparing them with those induced by cisplatinum, the expression of p53, p73 p21 and bax in the A172 and HCT116 lines was analysed.

| Molecule | apparent toxicity [1] | apoptosis rate (Annexin-V) ([2]; 15 μM, up to 72 hrs) | apoptosis rate (Annexin-V) ([2]; 45 μM, 24 hrs) [%] | proliferation of TK6 (p53 wild-type) compared with NH32 (p53-/-) [3] | proliferation of RDM4 cells, compound plus ionising radiation [4] | proliferation of RDM4 cells, compound plus ionising radiation ([4]; listed as RDC-11) | effect of the combination with irradiation ([4]; RDC-11 10 μM plus 4 Gy) | percentage of cells in apoptosis (propidium iodure), co-treatment ([4]; RDC-11 10 μM plus 4 Gy, three days after start) | proliferation of non-irradiated RDM4 cells (cell counting) [4] | growth inhibition, HL-60 compared with MOLT-4 ([5]; p53-deficient HL-60 vs MOLT-4 with normal p53) | increase in expression of p21 and inhibition of phosphorylation of histone H3 [6] | IC50 ([5]; p53-deficient line) [nM] |
| --- | --- | --- | --- | --- | --- | --- | --- | --- | --- | --- | --- | --- |
| [Ru(C6H4-2-C5H4N)(phen)(NCMe)2]PF6 [Compound 11] | lack of apparent toxicity | does not shown any effect | 70 | can be superposed | cell proliferation practically zero | cell growth is significantly slowed down | supra-additive effect | greater than the sum of treatments taken separately | negligible | more significant for HL-60s than for MOLT-4s | – | – |
| N.N.[Cl][Pt][Cl] [Cisplatinum, reference compound] | – | – | – | more significant effect upon the p53+/+ cells than upon the p53-deficient cells | – | – | – | – | inhibits proliferation more effectively than the ruthenium derivative | – | identical for CDR 6 and cisplatinum | 1000 |
